Several values for one entry are separate records, joined by “and”; a condition that tells them apart may be missing. Equal entries are not always repeated.
System: G-401 tumor spheroids, viability % test/control
Experiment: Anticancer human tumor G-401 cell line growth inhibition;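 further: spheroids exposed to compound for 7 days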;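 on viability, T/C: 100% = DMSO vehicle-treated spheroids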
Details: spheroids with HUVEC and MSC; for viability, T/C: stronger effect = lower value
How it was run: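 Complex spheroids of malignant cells with endothelial cells and mesenchymal stem cells; agents alone or combined, from near clinical Cmax (or 10 microM if unknown) down in half-log steps, 0.25% DMSO final.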

SMILES: COc1ccc([C@@H](O)c2cc(-c3ncnc4cc(N5CCOCC5)ccc34)c(F)cc2Cl)nn1 + Cn1nnc2c(C(N)=O)ncn2c1=O
- IC50 (curve of first compound, second compound 1 µM): 1.35 µM
- IC50 (curve of first compound, second compound 3.16 µM): 0.932 µM
- IC50 (curve of first compound, second compound 10 µM): 1.26 µM
- IC50 (curve of first compound, second compound 31.6 µM): 1.13 µM
- IC50 (curve of first compound, second compound 100 µM): 1.02 µM
- viability, T/C (second compound 1 µM, first compound 0.0316 µM): 103%
- viability, T/C (second compound 1 µM, first compound 0.1 µM): 95.7%
- viability, T/C (second compound 1 µM, first compound 0.316 µM): 88.1%
- viability, T/C (second compound 1 µM, first compound 1 µM): 60.9%
- viability, T/C (second compound 1 µM, first compound 3.16 µM): 21.9%
- viability, T/C (second compound 1 µM, first compound 10 µM): 9.93%
- viability, T/C (second compound 3.16 µM, first compound 0.0316 µM): 96.6%
- viability, T/C (second compound 3.16 µM, first compound 0.1 µM): 90.8%
- viability, T/C (second compound 3.16 µM, first compound 0.316 µM): 91.4%
- viability, T/C (second compound 3.16 µM, first compound 1 µM): 46.3%
- viability, T/C (second compound 3.16 µM, first compound 3.16 µM): 20.6%
- viability, T/C (second compound 3.16 µM, first compound 10 µM): 10.6%
- viability, T/C (second compound 10 µM, first compound 0.0316 µM): 105%
- viability, T/C (second compound 10 µM, first compound 0.1 µM): 96.1%
- viability, T/C (second compound 10 µM, first compound 0.316 µM): 90%
- viability, T/C (second compound 10 µM, first compound 1 µM): 57.8%
- viability, T/C (second compound 10 µM, first compound 3.16 µM): 20.9%
- viability, T/C (second compound 10 µM, first compound 10 µM): 10.8%
- viability, T/C (second compound 31.6 µM, first compound 0.0316 µM): 90.9%
- viability, T/C (second compound 31.6 µM, first compound 0.1 µM): 88.8%
- viability, T/C (second compound 31.6 µM, first compound 0.316 µM): 85.1%
- viability, T/C (second compound 31.6 µM, first compound 1 µM): 52%
- viability, T/C (second compound 31.6 µM, first compound 3.16 µM): 22.5%
- viability, T/C (second compound 31.6 µM, first compound 10 µM): 10.8%
- viability, T/C (second compound 100 µM, first compound 0.0316 µM): 89.5%
- viability, T/C (second compound 100 µM, first compound 0.1 µM): 87.4%
- viability, T/C (second compound 100 µM, first compound 0.316 µM): 82.9%
- viability, T/C (second compound 100 µM, first compound 1 µM): 49.5%
- viability, T/C (second compound 100 µM, first compound 3.16 µM): 19.1%
- viability, T/C (second compound 100 µM, first compound 10 µM): 8.51%

SMILES: CC(C)n1c(=O)n(C)c2cnc3cc(F)c(-c4ccc(OCCCN5CCCCC5)nc4)cc3c21
- viability, T/C (compound 0.0316 µM): 87.5% and 105% and 107%
- viability, T/C (compound 0.1 µM): 92.2% and 105% and 104%
- viability, T/C (compound 0.316 µM): 47.9% and 100% and 108%
- viability, T/C (compound 1 µM): 90.7% and 101% and 103%
- viability, T/C (compound 3.16 µM): 95.9% and 98.2% and 101%
- viability, T/C (compound 10 µM): 67.4% (2×) and 86.7%
- IC50 (curve of compound): > 10 µM

SMILES: CC1COCCN1c1cc(-c2ccnn2C)c2ccnc(-c3ccn[nH]3)c2n1 (stereo unspecified)
- viability, T/C (compound 0.0316 µM): 67% and 79% and 90.9%
- viability, T/C (compound 0.1 µM): 34.7% and 42.4% and 56%
- viability, T/C (compound 0.316 µM): 19.1% and 24.4% and 31.2%
- viability, T/C (compound 1 µM): 13.1% and 17.3% and 18.1%
- viability, T/C (compound 3.16 µM): 16.2% and 18.7% and 19.8%
- viability, T/C (compound 10 µM): 18.1% and 20.2% and 22.3%
- IC50 (curve of compound): 0.058 µM and 0.079 µM and 0.132 µM

SMILES: CC(C)n1c(=O)n(C)c2cnc3cc(F)c(-c4ccc(OCCCN5CCCCC5)nc4)cc3c21 + CC[C@@]1(O)C(=O)OCc2c1cc1n(c2=O)Cc2cc3c(CN(C)C)c(O)ccc3nc2-1
- IC50 (curve of first compound, second compound 0.003 µM): < 0.0316 µM
- IC50 (curve of first compound, second compound 0.00949 µM): < 0.0316 µM
- IC50 (curve of first compound, second compound 0.03 µM): < 0.0316 µM
- IC50 (curve of first compound, second compound 0.0949 µM): < 0.0316 µM
- IC50 (curve of first compound, second compound 0.3 µM): < 0.0316 µM
- viability, T/C (second compound 0.003 µM, first compound 0.0316 µM): 18.3%
- viability, T/C (second compound 0.003 µM, first compound 0.1 µM): 20.1%
- viability, T/C (second compound 0.003 µM, first compound 0.316 µM): 19.8%
- viability, T/C (second compound 0.003 µM, first compound 1 µM): 22.7%
- viability, T/C (second compound 0.003 µM, first compound 3.16 µM): 16.1%
- viability, T/C (second compound 0.003 µM, first compound 10 µM): 10.8%
- viability, T/C (second compound 0.00949 µM, first compound 0.0316 µM): 12.9%
- viability, T/C (second compound 0.00949 µM, first compound 0.1 µM): 15.5%
- viability, T/C (second compound 0.00949 µM, first compound 0.316 µM): 14.9%
- viability, T/C (second compound 0.00949 µM, first compound 1 µM): 14.6%
- viability, T/C (second compound 0.00949 µM, first compound 3.16 µM): 12.9%
- viability, T/C (second compound 0.00949 µM, first compound 10 µM): 7.82%
- viability, T/C (second compound 0.03 µM, first compound 0.0316 µM): 13.8%
- viability, T/C (second compound 0.03 µM, first compound 0.1 µM): 11.8%
- viability, T/C (second compound 0.03 µM, first compound 0.316 µM): 13.9%
- viability, T/C (second compound 0.03 µM, first compound 1 µM): 15.1%
- viability, T/C (second compound 0.03 µM, first compound 3.16 µM): 9.27%
- viability, T/C (second compound 0.03 µM, first compound 10 µM): 4.89%
- viability, T/C (second compound 0.0949 µM, first compound 0.0316 µM): 10.2%
- viability, T/C (second compound 0.0949 µM, first compound 0.1 µM): 9.71%
- viability, T/C (second compound 0.0949 µM, first compound 0.316 µM): 10.3%
- viability, T/C (second compound 0.0949 µM, first compound 1 µM): 12.7%
- viability, T/C (second compound 0.0949 µM, first compound 3.16 µM): 8.85%
- viability, T/C (second compound 0.0949 µM, first compound 10 µM): 4.85%
- viability, T/C (second compound 0.3 µM, first compound 0.0316 µM): 5.28%
- viability, T/C (second compound 0.3 µM, first compound 0.1 µM): 5.27%
- viability, T/C (second compound 0.3 µM, first compound 0.316 µM): 5.71%
- viability, T/C (second compound 0.3 µM, first compound 1 µM): 6.45%
- viability, T/C (second compound 0.3 µM, first compound 3.16 µM): 6.65%
- viability, T/C (second compound 0.3 µM, first compound 10 µM): 2.79%

SMILES: O=C(c1cc(Cc2n[nH]c(=O)c3ccccc23)ccc1F)N1CCN(C(=O)C2CC2)CC1
- viability, T/C (compound 0.0949 µM): 98.3% and 98.6% and 96.5%
- viability, T/C (compound 0.3 µM): 97.5% and 84.9% and 91.2%
- viability, T/C (compound 0.949 µM): 96.1% and 86.9% and 105%
- viability, T/C (compound 3 µM): 83.7% and 82.5% and 87%
- viability, T/C (compound 9.49 µM): 54.9% and 49.4% and 58.5%
- viability, T/C (compound 30 µM): 40.1% and 28.5% and 34.9%
- IC50 (curve of compound): 13.9 µM and 9.39 µM and 14.2 µM
